Where only a bound is given, the exact number is not on record here.

The values that follow come from patent US6962929B2, “Pentafluorobenzenesulfonamides and analogs” (Tularik Inc., priority 1996, dated 2005).

One data set deals with HeLa cells. The data set is described as follows: Inhibition of in vitro growth of HeLa cells (Alamar Blue uptake). The class given is cell-based, human. The conditions noted are these: concentration required to inhibit by 50% the uptake of Alamar Blue by HeLa cell cultures. As to the method: Compounds were evaluated for their ability to inhibit in vitro the growth of HeLa cells, an immortal cell line derived from a human cervical carcinoma commonly used to evaluate the cytotoxicity of potential therapeutic agents. The following data reflect the cytotoxicity of selected examples of the present invention. The values given represent the concentration of test compound required to inhibit by 50% the uptake of Alamar Blue (Biosource International, Camarillo, Calif.) by HeLa cell cultures, which correlates directly with the overall levels of cellular metabolism in the culture, and is generally accepted as an appropriate marker of cell growth. The test was conducted according to the method of S. A. Ahmed et al. (1994) J. Immunol. Methods 170: 211-224.
In general terms: Resazurin is reduced to fluorescent resorufin, in cell work by metabolically active cells.

A further data set has as its system tubulin. The data set is described as follows: Irreversible labeling of cellular protein by tritiated compounds in MCF7 cells. Type of data set: binding. The conditions noted are these: tritiated form; human breast carcinoma MCF7 cells. The text has this:
Preferred compounds display specific toxicity to various types of cells. Certain compounds and compositions of the present invention exert their cytotoxic effects by interacting with cellular tubulin. For certain preferred compounds and compositions of the present invention, that interaction is covalent and irreversible. […] This protein is a key component of microtubules, which constitute the cytoskeleton and also play critical roles in many other aspects of the cell's physiology, including cell division. The labeling of tubulin by the subject preferred compounds is also shown to be dose-dependent. The site of covalent binding on tubulin is identified as Cysteine-239 on the β-tubulin chain. The same Cys-239 residue is selectively covalently modified when present in a wide variety of Cys-239 containing β-tubulin petides (e.g. Ser-234 to Met-267) provided in vitro or in vivo. One embodiment of these preferred compounds provides the binding mechanism shown in Scheme IV, namely, displacement of the para-fluorine atom by the thiol group of Cys-239.

Usually IC50 stands for the concentration at which inhibition is half-maximal. In the data set on HeLa cells (Homo sapiens), `O=S(=O)(Nc1ccc(N2CCOCC2)cc1)c1c(F)c(F)c(F)c(F)c1F` [Example 25, 4-(1-Morpholino)-1-pentafluorophenylsulfonamidobenzene] displayed an IC50 of 10000 nM.

For the molecule `[3H]c1cc(OC)c(F)cc1NS(=O)(=O)c1c(F)c(F)c(F)c(F)c1F` [Example 72, 4-[3H]-1-Fluoro-2-methoxy-5-pentafluorosulfonamidobenzene], in the data set with tubulin, the “labeling of cellular protein” value is listed as “irreversible labeling of only one detectable cellular protein, which was found to be tubulin”.

Broadly, the melting point is the temperature of the solid-liquid transition. For `COc1ccc(N(CCCC(O)CO)S(=O)(=O)c2c(F)c(F)c(F)c(F)c2F)cc1` (stereo not drawn) [Example 55, 1-(N-(4,5-Dihydroxypentyl)pentafluorophenylsulfonamido)-4-methoxybenzene], the melting point was in the range of 116 to 118 °C.

Take `COc1ccc(N(CCC(O)CO)S(=O)(=O)c2c(F)c(F)c(F)c(F)c2F)cc1` (stereo not drawn) [Example 54, 1-(N-(3,4-Dihydroxybutyl)pentafluorophenylsulfonamido)-4-methoxybenzene]: the melting point is 126 to 128 °C.

Take `O=S(=O)(Nc1ccc2c(c1)OCCO2)c1c(F)c(F)c(F)c(F)c1F` [Example 3, 1,2-Ethylenedioxy-4-pentafluorophenylsulfonamidobenzene]: in the data set on HeLa cells (Homo sapiens), it took 1500 nM to reach half-maximal inhibition (IC50).

Molecule `CN(C)c1ccc(N(C)S(=O)(=O)c2c(F)c(F)c(F)c(F)c2F)cc1` [Example 17, 4-(N,N-Dimethylamino)-1-(N-methylpentafluorophenylsulfonanido)benzene] had a half-inhibitory concentration (IC50) with HeLa cells (Homo sapiens) of 10000 nM.

Turning to `COc1ccc(NS(=O)(=O)c2c(F)c(F)c(F)c(F)c2F)cc1N` [Example 59, 3-Amino-4-methoxy-1-pentafluorophenylsulfonamidobenzene], the melting point fell in the range of 142 to 143 °C.

`O=S(=O)(Nc1ccc2c(c1)OCO2)c1c(F)c(F)c(F)c(F)c1F` [Example 4, 1,2-Methylenedioxy-4-pentafluorophenylsulfonamidobenzene]: in the data set with HeLa cells (Homo sapiens), the midpoint of inhibition, the IC50, lay at 10000 nM.

`COc1ccc(N(CCCCCO)S(=O)(=O)c2c(F)c(F)c(F)c(F)c2F)cc1` [Example 57, 4-Methoxy-1-(N-(5-hydroxypentyl)pentafluorophenylsulfonamido)benzene] came in with a melting point of 96 to 97 °C.

`C=CCCN(c1ccc(OC)cc1)S(=O)(=O)c1c(F)c(F)c(F)c(F)c1F` [Example 51, 1-(N-(3-Butenyl)pentafluorophenylsulfonamido)-4-methoxybenzene] returned a melting point of 64 to 66 °C.

`COc1ccc(N(CCCCCO)S(=O)(=O)c2c(F)c(F)c(F)c(F)c2F)cc1O` [Example 37, 2-Hydroxy-1-methoxy-4-(N-(5-hydroxypentyl)-pentafluorophenylsulfonamido)benzene] showed a melting point of 118 °C.

Molecule `O=S(=O)(Nc1ccc(Cl)nc1)c1c(F)c(F)c(F)c(F)c1F` [Example 36, 2-Chloro-5-pentafluorophenylsulfonamidopyridine] came in with a melting point of 144 to 145 °C.

As for `COc1cc(Br)c(NS(=O)(=O)c2c(F)c(F)c(F)c(F)c2F)cc1F` [Example 41, 1-Bromo-4-fluoro-5-methoxy-2-pentafluorophenylsulfonamidobenzene], the melting point turned out to be 109 °C.

In the case of `COc1ccc(NS(=O)(=O)c2c(F)c(F)c(F)c(F)c2F)cc1O` [Example 6, 2-Hydroxy-1-methoxy-4-pentafluorophenylsulfonamidobenzene], the concentration for half-maximal inhibition (IC50) in the data set with HeLa cells (Homo sapiens) is below 50 nM.

Regarding `COc1ccc(NS(=O)(=O)c2c(F)c(F)c(F)c(F)c2F)cc1[N+](=O)[O-]` [Example 58, 4-Methoxy-3-nitro-1-pentafluorophenylsulfonamidobenzene], the melting point lay within 95 to 97 °C.

Turning to `CCN(CC)c1ccc(NS(=O)(=O)c2c(F)c(F)c(F)c(F)c2F)cc1` [Example 12, 4-(N,N-Diethylamino)-1-pentafluorophenylsulfonamidobenzene], the IC50 with HeLa cells (Homo sapiens) came to 150 nM.

`COc1ccc(NS(=O)(=O)c2c(F)c(F)c(F)c(F)c2F)cc1` [Example 8, 4-Methoxy-1-pentafluorophenylsulfonamidobenzene] yielded a melting point of 102 to 103 °C. The molecule also yielded an IC50 in the data set with HeLa cells (Homo sapiens) below 50 nM.

`CN(C)c1ccc(NS(=O)(=O)c2c(F)c(F)c(F)c(F)c2F)cc1` [Example 1, 4-(N,N-Dimethylamino)-1-pentafluorophenylsulfonamidobenzene] came in with an IC50 in the data set on HeLa cells (Homo sapiens) below 50 nM.

For the molecule `COc1ccc(NS(=O)(=O)c2c(F)c(F)c(F)c(F)c2F)cc1C(F)(F)F` [Example 49, 4-Methoxy-1-pentafluorophenylsulfonamido-3-trifluoromethylbenzene], the melting point lay within 121 to 123 °C.

In turn, `O=S(=O)(Nc1cccc(O)c1)c1c(F)c(F)c(F)c(F)c1F` [Example 9, 3-Hydroxy-1-pentafluorophenylsulfonamidobenzene] returned an IC50 in the data set on HeLa cells (Homo sapiens) of 1000 nM.

`COc1ccc(NS(=O)(=O)c2c(F)c(F)c(F)c(F)c2F)cc1Br` [Example 31, 2-Bromo-1-methoxy4-pentafluorophenylsulfonamidobenzene]: in the data set on HeLa cells (Homo sapiens), half-maximal inhibition (IC50) required 500 nM. Compared with the last molecule, the IC50 is about 2-fold lower.

In the data set with HeLa cells (Homo sapiens), `COc1ccc(N(C)S(=O)(=O)c2c(F)c(F)c(F)c(F)c2F)cc1F` [Example 30, 2-Fluoro-1-methoxy-4-(N-methylpentafluorophenylsulfonamido)benzene] registered an IC50 of 1500 nM.

The molecule `O=S(=O)(Nc1ccc2[nH]ncc2c1)c1c(F)c(F)c(F)c(F)c1F` [Example 15, 5-Pentafluorophenylsulfonamidoindazole] gave an IC50 with HeLa cells (Homo sapiens) of 1000 nM.

In the data set with HeLa cells (Homo sapiens), `COc1ccc(NS(=O)(=O)c2c(F)c(F)c(F)c(F)c2F)cc1F` [Example 7, 2-Fluoro-1-methoxy-4-pentafluorosulfonamidobenzene] registered a half-maximal inhibitory concentration (IC50) below 50 nM.

Regarding `COc1ccc(NS(=O)(=O)c2c(F)c(F)c(F)c(F)c2F)cc1Cl` [Example 32, 2-Chloro-1-methoxy-4-pentafluorophenylsulfonamidobenzene], half-maximal inhibition with HeLa cells (IC50) was put at 100 nM.

Molecule `C=CCN(c1ccc(OC)cc1)S(=O)(=O)c1c(F)c(F)c(F)c(F)c1F` [Example 50, 4-Methoxy-1-(N-(2-propenyl)pentafluorophenylsulfonamido)benzene] had a melting point of 59 to 60 °C.

Molecule `COc1ccc(N(CC(O)CO)S(=O)(=O)c2c(F)c(F)c(F)c(F)c2F)cc1` (stereo not drawn) [Example 53, 1-(N-(2,3-Dihydroxypropyl)pentafluorophenylsulfonamido)-4-methoxybenzene] had a melting point of 130 to 131 °C.

`COc1ccc(N(CCCCO)S(=O)(=O)c2c(F)c(F)c(F)c(F)c2F)cc1` [Example 56, 1-(N-(4-hydroxybutyl)pentafluorophenylsulfonamido)-4-methoxybenzene] showed a melting point of 88 to 90 °C.

As for `CN(C)c1cccc(NS(=O)(=O)c2c(F)c(F)c(F)c(F)c2F)c1` [Example 2, 3-(N,N-Dimethylamino)-1-pentafluorophenylsulfonamidobenzene], half-maximal inhibition in the data set with HeLa cells (Homo sapiens) (IC50) was put at 150 nM. This counts as sub-micromolar.
